Key:
Format in all cases: in vivo
[1] = tested on: Beet Armyworm (Spodoptera exigua, LAPHEG); experiment: Insecticidal test for beet armyworm (BAW), 128-well diet tray assay; settings: 168 h, 50 μg/cm^2 on artificial diet, second instar larvae, five to seven days, 25° C., read-out: BAW rating, % Control (or Mortality)
[2] = tested on: Yellow Fever Mosquito (Aedes aegypti, AEDSAE); settings: about 1 day-old larvae, 4000 ppm master solution diluted, 3 days, room temperature
Experimental: Insecticidal Test for Yellow Fever Mosquito (Aedes aegypti, AEDSAE) (“YFM”)
Master plates containing 400 μg of a molecule dissolved in 100 μL of dimethyl sulfoxide (DMSO) (equivalent to a 4000 ppm solution) are used. A master plate of assembled molecules contains 15 μL per well. To this plate, 135 μL of a 90:10 water/acetone mixture is added to each well. A robot (Biomek® NXP Laboratory Automation Workstation) is programmed to dispense 15 μL aspirations from the master plate into an empty 96-well shallow plate (“daughter” plate). There are 6 reps (“daughter” plates) created per master. The created “daughter” plates are then immediately infested with YFM larvae.
The day before plates are to be treated, mosquito eggs are placed in Millipore water containing liver powder to begin hatching (4 g. into 400 mL). After the “daughter” plates are created using the robot, they are infested with 220 μL of the liver powder/larval mosquito mixture (about 1 day-old larvae). After plates are infested with mosquito larvae, a non-evaporative lid is used to cover the plate to reduce drying. Plates are held at room temperature for 3 days prior to grading. After 3 days, each well is observed and scored based on mortality. In the reporting of the results, the “YFM Rating Table” was used.

[3] = tested on: Cabbage Looper (Trichloplusia ni, TRIPNI); experiment: Insecticidal test for cabbage looper (CL), 128-well diet tray assay; settings: Trichoplusia ni, 168 h; 50 μg/cm^2 on artificial diet, second instar larvae, five to seven days, 25° C.; read-out: CL rating, % Control (or Mortality)
[4] = tested on: Beet Armyworm (Spodoptera exigua, LAPHEG); experiment: Insecticidal test for beet armyworm (BAW), 128-well diet tray assay; settings: 168 h, tested at 5 μg/cm^2, second instar larvae, five to seven days, read-out: BAW rating, % Control (or Mortality)
[5] = tested on: Cabbage Looper (Trichloplusia ni, TRIPNI); experiment: Insecticidal test for cabbage looper (CL), 128-well diet tray assay; settings: Trichoplusia ni, 168 h; tested at 5 μg/cm^2, second instar larvae, five to seven days; read-out: CL rating, % Control (or Mortality)

| SMILES | mortality at 50 µg/cm2 [1] [%] | YFM rating, % Control (or Mortality) [2] | mortality at 50 µg/cm2 [3] [%] | mortality at 5 µg/cm2 [4] [%] | mortality at 5 µg/cm2 [5] [%] |
| --- | --- | --- | --- | --- | --- |
| Cc1ccc(C(F)(F)F)c(N2C(=O)CS/C2=N\C(=O)OCCc2ccc(-c3ncn(-c4ccc(OC(F)(F)F)cc4)n3)cc2)c1 [A14, 4-(1-(4-(Trifluoromethoxy)phenyl)-1H-1,2,4-triazol-3-yl)phenethyl (Z)-(3-(5-methyl-2-(trifluoromethyl)phenyl)-4-oxothiazolidin-2-ylidene)carbamate] | 50 to 100 | A (80-100) | 50 to 100 | – | – |
| CCCc1ccc(C)cc1N1C(=O)CS/C1=N\C(=O)OCCc1ccc(-c2ncn(-c3ccc(OC(F)(F)F)cc3)n2)cc1 [A15, 4-(1-(4-(Trifluoromethoxy)phenyl)-1H-1,2,4-triazol-3-yl)phenethyl (Z)-(3-(5-methyl-2-propylphenyl)-4-oxothiazolidin-2-ylidene)carbamate] | 50 to 100 | A (80-100) | 50 to 100 | – | – |
| CCOc1ccc(C)cc1N1C(=O)CS/C1=N\C(=O)OCCc1ccc(-c2ncn(-c3ccc(OC(F)(F)F)cc3)n2)cc1 [A16, 4-(1-(4-(Trifluoromethoxy)phenyl)-1H-1,2,4-triazol-3-yl)phenethyl (Z)-(3-(2-ethoxy-5-methylphenyl)-4-oxothiazolidin-2-ylidene)carbamate] | 50 to 100 | A (80-100) | 50 to 100 | – | – |
| Cc1cc(N2C(=O)CS/C2=N\C(=O)OCCc2ccc(-c3ncn(-c4ccc(OC(F)(F)F)cc4)n3)cc2)c(C(C)C)cc1F [A17, 4-(1-(4-(Trifluoromethoxy)phenyl)-1H-1,2,4-triazol-3-yl)phenethyl (Z)-(3-(4-fluoro-2-isopropyl-5-methylphenyl)-4-oxothiazolidin-2-ylidene)carbamate] | 50 to 100 | A (80-100) | 50 to 100 | – | – |
| Cc1cc(Cl)c(N2C(=O)CS/C2=N\C(=O)OCCc2ccc(-c3ncn(-c4ccc(OC(F)(F)F)cc4)n3)cc2)cc1C [A18, 4-(1-(4-(Trifluoromethoxy)phenyl)-1H-1,2,4-triazol-3-yl)phenethyl (Z)-(3-(2-chloro-4,5-dimethylphenyl)-4-oxothiazolidin-2-ylidene)carbamate] | 0 | D (No activity noticed in this bioassay) | 0 | – | – |
| Cc1ccc(C(C)C)c(N2C(=O)CS/C2=N\C(=O)OC(C)Cc2ccc(-c3ncn(-c4ccc(OC(F)(F)F)cc4)n3)cc2)c1 (centres unmarked) [A19, 1-(4-(1-(4-(Trifluoromethoxy)phenyl)-1H-1,2,4-triazol-3-yl)phenyl)propan-2-yl (Z)-(3-(2-isopropyl-5-methylphenyl)-4-oxothiazolidin-2-ylidene)carbamate] | 50 to 100 | B (More than 0-Less than 80) | 50 to 100 | – | – |
| Cc1ccc(C(C)C)c(N2C(=O)CS/C2=N\C(=O)OCC(F)c2ccc(-c3ncn(-c4ccc(OC(F)(F)C(F)(F)F)cc4)n3)cc2)c1 (centres unmarked) [A26, 2-Fluoro-2-(4-(1-(4-(perfluoroethoxy)phenyl)-1H-1,2,4-triazol-3-yl)phenyl)ethyl (Z)-(3-(2-isopropyl-5-methylphenyl)-4-oxothiazolidin-2-ylidene)carbamate] | – | – | – | 50 to 100 | 0 to 50 |

Source: patent publication US11297838B2, “Pesticidal compositions and methods” (CORTEVA AGRISCIENCE LLC, priority 2018, dated 2022)
